Where two headings read alike, the source gives them in different places. One block for each compound: values may come before it.
Assays:
[1] = target: T1, human Aurora A (amino acids 123–401) (Homo sapiens, UniProt O14965); experiment: In vitro inhibition of Aurora A kinase activity (Kinase-Glo Plus Luminescent Kinase assay, ATP consumption); format: biochemical; conditions: mean of 2–3 independent determinations ± SD; >100 = inhibition < 50% at 100 nM
T1 construct: N-terminal truncated human Aurora A (amino acids 123–401); GST; made in house; host or cells: Sf9 insect cells
T1 sequence (O14965 123-401): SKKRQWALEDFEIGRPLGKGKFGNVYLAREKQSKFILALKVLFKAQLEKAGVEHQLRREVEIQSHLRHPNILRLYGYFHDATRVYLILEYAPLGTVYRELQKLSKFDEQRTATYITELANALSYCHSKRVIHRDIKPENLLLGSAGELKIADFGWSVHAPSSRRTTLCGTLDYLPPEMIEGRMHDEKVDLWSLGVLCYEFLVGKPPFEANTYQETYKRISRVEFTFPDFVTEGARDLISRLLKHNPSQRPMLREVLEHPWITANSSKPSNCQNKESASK
Method: The inhibitory potency of the newly synthesized small molecules against Aurora A was first measured in ATP consumption assays using purified Aurora A protein.
The efficacy of the compounds as inhibitors of Aurora A kinase was assessed in vitro using the Kinase-Glo Plus Luminescent Kinase assay (Promega, USA), as described previously.[45] […] The resulting mixture was incubated at 25 °C for 20 min. A 70 μL aliquot of the mixture was transferred to a black microtiter plate.

cMYC in NCI-H82 = experiment: Western blot analysis of cMYC protein level in NCI-H82 cells; format: cell-based; conditions: for NCI-H82 cMYC, relative protein level: 1.0 μM of compound, mean ± SD, triplicate
Method: (§1) Cancer cells were treated with each of the compounds at different compound concentrations. […] Each lysate was separated by sodium dodecyl sulfate polyacrylamide gel electrophoresis (SDS-PAGE), transferred to polyvinylidene fluoride (PVDF, Millipore, USA) membrane, and blotted with antibodies. […] After the blotting (0.2% casein, 1% BSA, or 5% nonfat milk), membranes were washed with blotting buffer (0.2% casein in 1× PBS or 1× TBST), and corresponding alkaline phosphatase (AP)- or horseradish peroxidase (HRP)-conjugated secondary antibodies (Sigma-Aldrich) were added. The blots were developed by chemiluminescence (PerkinElmer, USA).

MYCN in SK-N-BE(2) = experiment: Western blot analysis of MYCN protein level in SK-N-BE(2) cells; format: cell-based; conditions: for SK-N-BE(2) MYCN, relative protein level: 1.0 μM of compound, mean ± SD, triplicate
Method: as §1

NCI-H146 = experiment: Cell proliferation inhibition assay (PrestoBlue); format: cell-based; conditions: NCI-H146 (MYC-unamplified), read-out: Compound 13 IC50 (half-proliferation inhibition concentration)
From the text: (§2) SCLC is an aggressive malignancy that accounts for around 10–15% of all lung cancers, for which no targeted therapy is currently available.[29],[30] SCLC cells are characterized by rapid proliferation, universal RB1 and TP53 inactivation, and high rates of MYC-family amplification.[31] A recent study of MYC amplification in 77 formalin-fixed paraffin-embedded SCLC tumor samples using chromogenic in situ hybridization identified amplification of the MYC-family oncogenes in 20% of the tumors.[32],[33] Thus, we evaluated the growth-inhibitory effects of 13 on nine different SCLC cell lines: five with cMYC amplification, one with MYCN amplification, one with MYCL amplification, and two with no MYC-family amplification.
(§3) The efficacy of the compounds as inhibitors of cancer cell proliferation was assessed using PrestoBlue Cell Viability Reagent (ThermoFisher Scientific, USA). Cells were seeded at a density of 5000–10,000 cells per well in 96-well plates. After 24 h, cells were treated with each compound at various concentrations (0–10 μM). IC50 values were computed based on a triplicate, eight-point titration. After 72 h of drug treatment, 10 μL of PrestoBlue Cell Viability Reagent was added to each well, and fluorescence signals were collected using a Wallac Vector 1420 multilabel counter (PerkinElmer, USA).

NCI-H211 = experiment: Cell proliferation inhibition assay (PrestoBlue); format: cell-based; conditions: Homo sapiens, NCI-H211, 72 h; read-out: Compound 13 IC50 (half-proliferation inhibition concentration)
From the text: as §2, §3

NCI-H2171 = experiment: Cell proliferation inhibition assay (PrestoBlue); format: cell-based; conditions: Homo sapiens, NCI-H2171, 72 h; read-out: Compound 13 IC50 (half-proliferation inhibition concentration)
From the text: as §2, §3

NCI-H446 = experiment: Cell proliferation inhibition assay (PrestoBlue); format: cell-based; conditions: Homo sapiens, NCI-H446, 72 h; read-out: Compound 13 IC50 (half-proliferation inhibition concentration)
From the text: as §2, §3

NCI-H524 = experiment: Cell proliferation inhibition assay (PrestoBlue); format: cell-based; conditions: Homo sapiens, NCI-H524, 72 h; read-out: Compound 13 IC50 (half-proliferation inhibition concentration)
From the text: as §2, §3

NCI-H82 = experiment: Cell proliferation inhibition assay (PrestoBlue); format: cell-based; conditions: Homo sapiens, NCI-H82, 72 h; read-out: Compound 13 IC50 (half-proliferation inhibition concentration)
From the text: as §2, §3

[2] = tested on: high-MYC expressing small-cell lung cancer (SCLC) cell lines; experiment: Cell proliferation inhibition assay, cell lines not named singly; format: cell-based; conditions: high-MYC expressing / cMYC-amplified SCLC cell lines, 72 h
From the text: as §2, §3

[3] = tested on: NCI-H446 xenograft tumors; experiment: In vivo xenograft tumor growth inhibition; parameters: species or system mice
Method: (§4) Male athymic nu/nu nude mice (BioLASCO, Taiwan) 6 weeks old were housed in sterile cages maintained under 12 h light/dark cycles with controlled temperature and humidity. Mice were inoculated subcutaneously with 1 × 10^6 NCI–H446 cells (ATCC@ HTB-171) resuspended in saline mixed with 50% Matrigel matrix (Corning, USA). The sizes of the xenografted tumors were measured by a digital caliper (GMC-190; Goldsun Electronics Co.) and calculated using the formula: tumor volume (mm^3) = length × (width)2/2. Body weight and tumor size were measured at least twice a week. When the xenograft tumor reached ≥200 mm^3 in size, mice were intravenous or orally administered with the vehicle (5% dimethylacetamide/95% PEG400) or the compounds on a 5-on-2-off dosing regimen for 2–4 weeks. Tumor growth was analyzed for a statistically significant difference using ANOVA, followed by the Student–Newman–Keuls test. P < 0.05 was considered a significant difference between groups.

[4] = Body weight of xenograft mice during treatment; format: in vivo; conditions: IV 50 mg/kg, 5-on-2-off, during the treatment
Method: as §4

[5] = tested on: cMYC in NCI-H446 xenograft tumors; experiment: In vivo target validation: cMYC protein level in tumors (western blot); parameters: species or system mice; conditions: single oral dose 100 mg/kg, 2–24 h
Method: (§5) Tumors were harvested after 2, 4, 8, and 24 h of the treatment, respectively (Figure 4A). Whole tumor tissues were collected for western blotting and immunohistochemistry (IHC) analyses. […] The western blot result of phosphorylated Aurora A/B/C was not provided due to the inability of detecting the signal in the tumor tissues.
(§6) The efficacy of a compound in reducing the MYC protein level and in inducing cell apoptosis was assessed using an NCI-H446 xenograft tumorigenicity mouse model. Six-week-old male athymic nu/nu nude mice (BioLASCO, Taiwan) were inoculated subcutaneously with 1 × 10^6 NCI-H446 cells resuspended in saline mixed with 50% Matrigel matrix (Corning, USA). […] Tumors were harvested after 2, 4, 8, and 24 h of drug treatment, respectively. Half of the tumor was cryopreserved and then subjected to western analysis; the other half was fixed in 10% formalin and then embedded in paraffin. For immunohistochemistry, tissue paraffin sections were deparaffinized using xylene and ethanol. After rehydration, antigen retrieval was achieved by placing the slides in 100 °C citrate buffer, pH 6.0 for 1 h. Endogenous peroxides were quenched by 0.5% H2O2 for 10 min. Slides were blocked with 3% BSA for 30 min and then incubated with a rabbit anticleaved Caspase-3 antibody (Cell signaling, 9661S) at room temperature for 1.5 h. After three washes with 1× PBS, a goat antirabbit HRP-polymer (Biocare Medical, USA) was added, followed by development of the color using 3,3′-diaminobenzidine substrate chromogen (Biocare Medical, USA). The nucleus was stained with hematoxylin.

[6] = tested on: pH3(Ser10) in NCI-H446 xenograft tumors; experiment: In vivo target validation: phosphorylation of histone H3 at Ser10 in tumors (western blot); parameters: species or system mice; conditions: single oral dose 100 mg/kg, 2 h after drug administration
Method: as §5
as §6, with “After three washes with 1× PBS, a goat antirabbit HRP-polymer (Biocare Medical, USA) was added, followed by development of the color using 3,3′-diaminobenzidine substrate chromogen (Biocare Medical, USA). The nucleus was stained with hematoxylin.” left out

[7] = tested on: cleaved PARP-1 (cPARP-1) in NCI-H446 xenograft tumors; experiment: In vivo target validation: cleaved PARP-1 in tumors (western blot); parameters: species or system mice; conditions: single oral dose 100 mg/kg, after 24 h
Method: Apoptosis was assessed using levels of PARP-1, one of several known cellular substrates of caspases; cleavage of PARP-1 by caspases is considered a hallmark of apoptosis.[44]
as §6, with “The nucleus was stained with hematoxylin.” left out

IC50 [1]: 0.0458 ± 0.0014 µM
SMILES: CCN1CCN(c2cc(Nc3cc(C)[nH]n3)nc(N[C@H]3CCN(C(=O)c4cc(Cl)ccc4F)C3)n2)CC1 [Compound 12, (S)-(5-Chloro-2-fluorophenyl) (3-((4-(4-ethylpiperazin-1-yl)-6-((5-methyl-1H-pyrazol-3-yl)amino)pyrimidin-2-yl)amino)pyrrolidin-1-yl)methanone]
NCI-H82 cMYC, relative protein level (cMYC in NCI-H82; 24 h): 0.559 ± 0.119 | SK-N-BE(2) MYCN, relative protein level (MYCN in SK-N-BE(2); 24 h): 0.734 ± 0.104

IC50 [1]: 0.0386 ± 0.007 µM | IC50 (NCI-H146; Homo sapiens, NCI-H146, 72 h): 1.18 µM | IC50 (NCI-H146; 72 h): > 1 µM | IC50 (NCI-H211): 0.105 µM | IC50 (NCI-H2171): 0.0271 µM | IC50 (NCI-H446): 0.12 µM | IC50 (NCI-H524): 0.00336 µM | IC50 (NCI-H82): 0.0517 µM | IC50 [2]: < 0.2 µM
SMILES: CCN1CCN(c2cc(Nc3cc(C)[nH]n3)nc(N[C@H]3CCN(C(=O)c4ccc(Cl)cc4F)C3)n2)CC1 [Compound 13, (S)-(4-Chloro-2-fluorophenyl) (3-((4-(4-ethylpiperazin-1-yl)-6-((5-methyl-1H-pyrazol-3-yl)amino)pyrimidin-2-yl)amino)pyrrolidin-1-yl)methanone]
reduction of cMYC level (cMYC in NCI-H82; 1.0 μM): > 50% | NCI-H82 cMYC, relative protein level (cMYC in NCI-H82; 24 h): 0.475 ± 0.023 | effect on cMYC protein level in NCI-H82 (cMYC in NCI-H82; various concentrations, 24 h): dose-dependent loss | reduction of MYCN level (MYCN in SK-N-BE(2); 1.0 μM): > 50% | SK-N-BE(2) MYCN, relative protein level (MYCN in SK-N-BE(2); 24 h): 0.487 ± 0.066 | effect on MYCN protein level in SK-N-BE(2) (MYCN in SK-N-BE(2); various concentrations, 24 h): dose-dependent loss | tumor growth inhibition ([3]; IV 50 mg/kg, 5-on-2-off dosing schedule, two weeks, nude mice): > 90% | body weight change [4]: less than 5%

IC50 [1]: 0.0567 ± 0.0039 µM
SMILES: CCN1CCN(c2cc(Nc3cc(C)[nH]n3)nc(N[C@H]3CCN(C(=O)c4c(F)cc(Cl)cc4F)C3)n2)CC1 [Compound 15, (S)-(4-Chloro-2,6-difluorophenyl) (3-((4-(4-ethylpiperazin-1-yl)-6-((5-methyl-1H-pyrazol-3-yl)amino)pyrimidin-2-yl)amino)pyrrolidin-1-yl)methanone]
NCI-H82 cMYC, relative protein level (cMYC in NCI-H82; 24 h): 1.153 ± 0.158 | SK-N-BE(2) MYCN, relative protein level (MYCN in SK-N-BE(2); 24 h): 0.757 ± 0.121

IC50 [1]: 0.0509 ± 0.0023 µM
SMILES: CCN1CCN(c2cc(Nc3cc(C)[nH]n3)nc(N[C@H]3CCN(C(=O)c4cc(F)c(Cl)cc4F)C3)n2)CC1 [Compound 16, (S)-(4-Chloro-2,5-difluorophenyl) (3-((4-(4-ethylpiperazin-1-yl)-6-((5-methyl-1H-pyrazol-3-yl)amino)pyrimidin-2-yl)amino)pyrrolidin-1-yl)methanone]
NCI-H82 cMYC, relative protein level (cMYC in NCI-H82; 24 h): 0.834 ± 0.121 | SK-N-BE(2) MYCN, relative protein level (MYCN in SK-N-BE(2); 24 h): 0.792 ± 0.170

IC50 [1]: 0.0649 ± 0.0137 µM
SMILES: CCN1CCN(c2cc(Nc3cc(C)[nH]n3)nc(N[C@H]3CCN(C(=O)c4ccc(Cl)c(F)c4F)C3)n2)CC1 [Compound 17, (S)-(4-Chloro-2,3-difluorophenyl) (3-((4-(4-ethylpiperazin-1-yl)-6-((5-methyl-1H-pyrazol-3-yl)amino)pyrimidin-2-yl)amino)pyrrolidin-1-yl)methanone]
NCI-H82 cMYC, relative protein level (cMYC in NCI-H82; 24 h): 0.744 ± 0.124 | SK-N-BE(2) MYCN, relative protein level (MYCN in SK-N-BE(2); 24 h): 0.541 ± 0.068

SMILES: CCOC(=O)n1nc(C)cc1Nc1cc(N2CCN(CC)CC2)nc(N[C@H]2CCN(C(=O)c3ccc(Cl)cc3F)C2)n1 [Compound 22, Ethyl (S)-5-((2-((1-(4-chloro-2-fluorobenzoyl)pyrrolidin-3-yl)amino)-6-(4-ethylpiperazin-1-yl)pyrimidin-4-yl)amino)-3-methyl-1H-pyrazole-1-carboxylate]
anticancer activity in NCI-H446 xenograft tumor model ([3]; oral administration, 5-on-2-off regimen): dose-dependent anticancer activity

SMILES: COc1cc(Nc2ncc3c(n2)-c2ccc(Cl)cc2C(c2c(F)cccc2OC)=NC3)ccc1C(=O)O [MLN8237, reference compound]
tumors started to grow, day after the last dosage ([3]; PO, 5-on-2-off, after end of dosing): 22 days | effect on the cMYC level in tumors [5]: marginal effect | reduction of phosphorylation level of histone H3 at Ser10 [6]: > 90% | cleaved PARP-1 (cPARP-1) levels in tumor tissues [7]: significantly upregulated

Source: paper PMC8279414, “Discovery and Synthesis of a Pyrimidine-Based Aurora Kinase Inhibitor to Reduce Levels of MYC Oncoproteins” (Journal of Medicinal Chemistry, 2021)
